The source made the active and inactive calls. The calls are words filed in the database; no cut-off is given here.
Legend:
CWR22R = assay: Cytotoxicity against human 22Rv1 cells assessed as cell viability at 20 uM incubated for 72 hrs by resazurin dye based microplate reader assay; format: functional; details: read-out: Activity
DU-145 = assay: Cytotoxicity against human DU-145 cells assessed as cell viability at 20 uM incubated for 72 hrs by resazurin dye based microplate reader assay; format: functional; details: read-out: Activity
LAPC4 [1] = assay: Downregulation of Nkx3.1 protein expression in human LAPC4 cells at 10 uM incubated for 24 hrs by immunoblotting analysis; format: functional, cell-based
LAPC4 [2] = assay: Downregulation of PSA protein expression in human LAPC4 cells at 10 uM incubated for 24 hrs by immunoblotting analysis; format: functional, cell-based
LAPC4 [3] = assay: Inhibition of colony formation in human LAPC4 cells at 10 uM incubated for 10 days by crystal violet staining based assay; format: functional; details: LAPC4, 240 h, time 10 day
LAPC4 [4] = assay: Cytotoxicity against human LAPC4 cells assessed as cell viability at 20 uM incubated for 72 hrs by resazurin dye based microplate reader assay; format: functional; details: read-out: Activity
[5] = Downregulation of AR protein expression in human LAPC4 cells assessed as AR levels at 10 uM incubated for 24 hrs by immunoblotting analysis; format: functional
LAPC4 [6] = assay: Inhibition of colony formation in human LAPC4 cells at 5 uM incubated for 10 days by crystal violet staining based assay; format: functional, cell-based; details: time 10.0 day

Compound | viability at 20 µM (CWR22R) | viability at 20 µM (DU-145) | Activity (LAPC4 [1]) | Activity (LAPC4 [2]) | inhibition at 10 µM (LAPC4 [3]) | viability at 20 µM (LAPC4 [4]) | Activity [5] | inhibition (LAPC4 [6])
Cc1c2c(nn1C)C[C@@H]1CC[C@@H]3[C@H](CC[C@]4(C)C(=O)CC[C@@H]34)[C@@]1(C)C2 | 103% | ≥ 100% | inactive | inactive | 67% | 53% | 86% | 
C[C@]12Cc3c(nn(-c4ccccc4)c3-c3ccccc3)C[C@@H]1CC[C@@H]1[C@@H]2CC[C@]2(C)C(=O)CC[C@@H]12 | 19% | 19% | inactive | inactive | 19% | 61% | >=100% | 
COc1ccc(-n2cc3c(n2)C[C@@H]2CC[C@@H]4[C@H](CC[C@]5(C)[C@@H](O)CC[C@@H]45)[C@@]2(C)C3)cc1 | ≥ 100% | ≥ 100% | inactive | inactive | 65% | 99% | >=100% | 
Cc1ccc(-n2cc3c(n2)C[C@@H]2CC[C@@H]4[C@H](CC[C@]5(C)[C@@H](O)CC[C@@H]45)[C@@]2(C)C3)cc1 | ≥ 100% | 100% | inactive | inactive | 42% | ≥ 100% | >=100% | 
C[C@]12Cc3c(nn(-c4ccccc4)c3-c3ccc(O)cc3)C[C@@H]1CC[C@@H]1[C@@H]2CC[C@]2(C)[C@@H](O)CC[C@@H]12 | 37% | 57% | inactive | inactive | 22% | 63% | >=100% | 
C[C@]12Cc3cnn(-c4ccc(Cl)cc4)c3C[C@@H]1CC[C@@H]1[C@@H]2CC[C@]2(C)[C@@H](O)CC[C@@H]12 | 80% | 91% | Active | Active | 0% | 49% | >=100% | 
C[C@]12Cc3cn(-c4ccccc4)nc3C[C@@H]1CC[C@@H]1[C@@H]2CC[C@]2(C)[C@@H](O)CC[C@@H]12 | ≥ 100% | ≥ 100% | inactive | inactive | 59% | 100% | >=100% | 
C[C@]12Cc3cn(-c4ccc(C#N)cc4)nc3C[C@@H]1CC[C@@H]1[C@@H]2CC[C@]2(C)[C@@H](O)CC[C@@H]12 | 94% | 97% | inactive | inactive | 76% | 93% | >=100% | 
C[C@]12Cc3cn(-c4ccc(Cl)cc4)nc3C[C@@H]1CC[C@@H]1[C@@H]2CC[C@]2(C)[C@@H](O)CC[C@@H]12 | ≥ 100% | ≥ 100% | inactive | inactive | 98% | 82% | >=100% | 
Cc1c2c(nn1C)C[C@@H]1CC[C@@H]3[C@H](CC[C@]4(C)[C@@H](O)CC[C@@H]34)[C@@]1(C)C2 | 52% | 98% | inactive | inactive | 36% | 52% | 98% | 
C[C@]12Cc3cn(-c4ccc([N+](=O)[O-])cc4)nc3C[C@@H]1CC[C@@H]1[C@@H]2CC[C@]2(C)[C@@H](O)CC[C@@H]12 | ≥ 100% | 99% | inactive | inactive | 93% | 96% | >=100% | 
C[C@]12Cc3c(nn(-c4ccccc4)c3-c3ccc(Cl)cc3)C[C@@H]1CC[C@@H]1[C@@H]2CC[C@]2(C)[C@@H](O)CC[C@@H]12 | 4% | 5% | inactive | inactive | 47% | 30% | >=100% | 
C[C@]12Cc3cn(-c4ccc(F)cc4)nc3C[C@@H]1CC[C@@H]1[C@@H]2CC[C@]2(C)[C@@H](O)CC[C@@H]12 | ≥ 100% | ≥ 100% | inactive | inactive | 66% | 95% | >=100% | 
C[C@]12Cc3cn(-c4ccc(Br)cc4)nc3C[C@@H]1CC[C@@H]1[C@@H]2CC[C@]2(C)[C@@H](O)CC[C@@H]12 | 83% | ≥ 100% | inactive | inactive | 24% | 79% | >=100% | 
Cn1nc2c(c1-c1ccccc1)C[C@@]1(C)[C@@H](CC[C@@H]3[C@@H]1CC[C@]1(C)C(=O)CC[C@@H]31)C2 | 68% | ≥ 100% |  |  | 21% | 36% | 65% | Active
C[C@]12Cc3c(nn(-c4ccccc4)c3-c3ccc(Cl)cc3)C[C@@H]1CC[C@@H]1[C@@H]2CC[C@]2(C)C(=O)CC[C@@H]12 | 93% | 98% | inactive | inactive | 91% | 83% | >=100% | 
Cn1nc2c(c1-c1ccc(F)cc1)C[C@@]1(C)[C@@H](CC[C@@H]3[C@@H]1CC[C@]1(C)[C@@H](O)CC[C@@H]31)C2 | 26% | 89% |  |  | 16% | 44% | 83% | Active
Cc1ccc(-n2ncc3c2C[C@@H]2CC[C@@H]4[C@H](CC[C@]5(C)[C@@H](O)CC[C@@H]45)[C@@]2(C)C3)cc1 | 97% | 96% | Active | Active | 0% | 70% | >=100% | 
Cn1nc2c(c1-c1ccc(Cl)cc1)C[C@@]1(C)[C@@H](CC[C@@H]3[C@@H]1CC[C@]1(C)C(=O)CC[C@@H]31)C2 | 61% | 98% |  |  | 11% | 21% | 67% | Active
C[C@]12Cc3c(nn(-c4ccccc4)c3-c3ccc(O)cc3)C[C@@H]1CC[C@@H]1[C@@H]2CC[C@]2(C)C(=O)CC[C@@H]12 | 57% | 94% | inactive | inactive | 39% | 67% | >=100% | 
C[C@]12Cc3cnn(-c4ccccc4)c3C[C@@H]1CC[C@@H]1[C@@H]2CC[C@]2(C)[C@@H](O)CC[C@@H]12 | 36% | 97% | Active | Active | 1% | 60% | >=100% | 
COc1ccc(-c2c3c(nn2C)C[C@@H]2CC[C@@H]4[C@H](CC[C@]5(C)C(=O)CC[C@@H]45)[C@@]2(C)C3)cc1 | 58% | 97% |  |  | 34% | 35% | >=100% | Active

Reference: ChEMBL document CHEMBL5346877, “A-ring-fused pyrazoles of dihydrotestosterone targeting prostate cancer cells via the downregulation of the androgen receptor” (Eur J Med Chem, 2023)
